Legend:
Assay in all cases: KinomeScan profiling
Format in all cases: binding
[1] = molecular target: T1, CAMK4 (Homo sapiens, UniProt Q16566); conditions: CAMK4, 1 μM; read-out: % control
T1 sequence (Q16566 1-473): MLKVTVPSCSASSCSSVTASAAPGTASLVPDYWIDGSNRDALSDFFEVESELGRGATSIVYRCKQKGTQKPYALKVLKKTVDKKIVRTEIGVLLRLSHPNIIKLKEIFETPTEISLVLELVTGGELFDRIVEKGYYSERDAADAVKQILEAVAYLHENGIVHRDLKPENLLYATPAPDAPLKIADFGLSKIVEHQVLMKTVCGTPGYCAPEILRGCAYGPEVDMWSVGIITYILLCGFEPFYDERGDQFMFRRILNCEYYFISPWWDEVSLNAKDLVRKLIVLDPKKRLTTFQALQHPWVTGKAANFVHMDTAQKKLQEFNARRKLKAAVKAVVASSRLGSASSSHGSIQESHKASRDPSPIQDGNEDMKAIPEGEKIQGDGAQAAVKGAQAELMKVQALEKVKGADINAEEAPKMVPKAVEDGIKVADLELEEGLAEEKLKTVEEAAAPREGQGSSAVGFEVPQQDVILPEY
Procedure, shortened: (§1)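 1 μM cpd in DMSO; 468-kinase panel; readout RLU. % ctrl = (cpd − pos ctrl)/(neg ctrl − pos ctrl) ×100. Pos ctrl = 0%, DMSO = 100%. Hit cut-off <35%.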

[2] = molecular target: T2, RIOK1 (Homo sapiens, UniProt Q9BRS2); conditions: RIOK1, 1 μM; read-out: % control
T2 sequence (Q9BRS2 1-568): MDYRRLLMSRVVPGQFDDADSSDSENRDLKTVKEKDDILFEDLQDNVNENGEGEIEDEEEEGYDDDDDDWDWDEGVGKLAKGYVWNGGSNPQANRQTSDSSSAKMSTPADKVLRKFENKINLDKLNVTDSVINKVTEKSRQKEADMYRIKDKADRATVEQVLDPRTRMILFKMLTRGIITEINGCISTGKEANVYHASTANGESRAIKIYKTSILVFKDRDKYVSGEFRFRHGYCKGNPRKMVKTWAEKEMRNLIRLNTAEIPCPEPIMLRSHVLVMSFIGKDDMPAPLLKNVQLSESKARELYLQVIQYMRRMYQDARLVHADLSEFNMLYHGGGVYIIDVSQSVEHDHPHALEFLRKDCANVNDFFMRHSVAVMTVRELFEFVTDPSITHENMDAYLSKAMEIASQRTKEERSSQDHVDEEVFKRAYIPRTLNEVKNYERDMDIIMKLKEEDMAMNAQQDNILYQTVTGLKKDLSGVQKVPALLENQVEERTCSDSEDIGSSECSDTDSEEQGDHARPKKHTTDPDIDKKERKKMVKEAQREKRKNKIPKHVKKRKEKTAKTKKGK
Procedure, shortened: as §1

[3] = molecular target: PRP4 (Homo sapiens, UniProt Q13523); conditions: PRP4, 1 μM; read-out: % control
Procedure, shortened: as §1

[4] = molecular target: T3, KIT(V559D) (Homo sapiens, UniProt P10721, V559D); conditions: read-out: % control
T3 construct: purchased KinomeScan®
Procedure, shortened: as §1

[5] = molecular target: T4, RSK1(Kin.Dom.1-N-terminal) (Homo sapiens, UniProt Q15418); conditions: read-out: % control
T4 construct: RSK1(Kin.Dom.1-N-terminal)
Procedure, shortened: as §1

[6] = molecular target: TGFBR2 (Homo sapiens, UniProt P37173); conditions: TGFBR2, 1 μM; read-out: % control
Procedure, shortened: as §1

[7] = molecular target: T5, NEK10 (Homo sapiens, UniProt Q6ZWH5); conditions: NEK10, 1 μM; read-out: % control
T5 sequence (Q6ZWH5 1-1172): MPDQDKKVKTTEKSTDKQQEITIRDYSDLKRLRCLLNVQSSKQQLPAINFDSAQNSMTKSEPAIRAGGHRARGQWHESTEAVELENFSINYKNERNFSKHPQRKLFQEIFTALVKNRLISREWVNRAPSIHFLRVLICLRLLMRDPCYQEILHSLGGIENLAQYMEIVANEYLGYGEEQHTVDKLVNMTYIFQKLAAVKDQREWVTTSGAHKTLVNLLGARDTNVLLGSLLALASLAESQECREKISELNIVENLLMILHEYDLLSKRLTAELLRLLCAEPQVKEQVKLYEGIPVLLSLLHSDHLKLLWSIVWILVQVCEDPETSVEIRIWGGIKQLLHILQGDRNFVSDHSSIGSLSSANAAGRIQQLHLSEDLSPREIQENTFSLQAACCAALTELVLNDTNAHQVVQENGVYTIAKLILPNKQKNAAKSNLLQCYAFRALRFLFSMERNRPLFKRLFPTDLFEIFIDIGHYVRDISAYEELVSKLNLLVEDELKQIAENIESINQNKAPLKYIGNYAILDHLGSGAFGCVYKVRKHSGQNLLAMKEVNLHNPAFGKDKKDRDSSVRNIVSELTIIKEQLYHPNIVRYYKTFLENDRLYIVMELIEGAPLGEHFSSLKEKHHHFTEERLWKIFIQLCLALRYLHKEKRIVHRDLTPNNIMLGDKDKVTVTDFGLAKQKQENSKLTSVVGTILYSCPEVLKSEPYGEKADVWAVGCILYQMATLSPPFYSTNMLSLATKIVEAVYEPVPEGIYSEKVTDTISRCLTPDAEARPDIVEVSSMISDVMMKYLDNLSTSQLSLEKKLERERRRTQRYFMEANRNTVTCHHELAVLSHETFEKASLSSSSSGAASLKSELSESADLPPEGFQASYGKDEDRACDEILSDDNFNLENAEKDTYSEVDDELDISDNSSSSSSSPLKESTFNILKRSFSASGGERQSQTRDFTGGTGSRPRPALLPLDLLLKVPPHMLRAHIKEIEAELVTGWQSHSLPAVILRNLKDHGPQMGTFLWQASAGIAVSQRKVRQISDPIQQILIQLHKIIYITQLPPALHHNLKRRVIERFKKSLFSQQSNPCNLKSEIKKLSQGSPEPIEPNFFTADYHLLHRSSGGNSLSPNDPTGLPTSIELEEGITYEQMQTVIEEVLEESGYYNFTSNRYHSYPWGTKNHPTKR
Procedure, shortened: as §1

[8] = molecular target: CAMK1B (Homo sapiens, UniProt Q6P2M8); conditions: read-out: % control
Procedure, shortened: as §1

[9] = molecular target: CAMK2B (Homo sapiens, UniProt Q13554); conditions: read-out: % control
Procedure, shortened: as §1

T4 sequence (Q15418 62-321 limits assumed): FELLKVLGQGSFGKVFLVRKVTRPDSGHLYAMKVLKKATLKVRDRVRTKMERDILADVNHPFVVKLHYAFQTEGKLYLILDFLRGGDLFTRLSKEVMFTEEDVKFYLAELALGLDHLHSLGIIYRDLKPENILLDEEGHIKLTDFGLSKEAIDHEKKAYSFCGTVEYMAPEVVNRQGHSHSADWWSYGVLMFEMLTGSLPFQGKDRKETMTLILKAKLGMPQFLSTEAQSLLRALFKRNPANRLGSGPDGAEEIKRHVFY
Chain of TGFBR2 (P37173 23-567): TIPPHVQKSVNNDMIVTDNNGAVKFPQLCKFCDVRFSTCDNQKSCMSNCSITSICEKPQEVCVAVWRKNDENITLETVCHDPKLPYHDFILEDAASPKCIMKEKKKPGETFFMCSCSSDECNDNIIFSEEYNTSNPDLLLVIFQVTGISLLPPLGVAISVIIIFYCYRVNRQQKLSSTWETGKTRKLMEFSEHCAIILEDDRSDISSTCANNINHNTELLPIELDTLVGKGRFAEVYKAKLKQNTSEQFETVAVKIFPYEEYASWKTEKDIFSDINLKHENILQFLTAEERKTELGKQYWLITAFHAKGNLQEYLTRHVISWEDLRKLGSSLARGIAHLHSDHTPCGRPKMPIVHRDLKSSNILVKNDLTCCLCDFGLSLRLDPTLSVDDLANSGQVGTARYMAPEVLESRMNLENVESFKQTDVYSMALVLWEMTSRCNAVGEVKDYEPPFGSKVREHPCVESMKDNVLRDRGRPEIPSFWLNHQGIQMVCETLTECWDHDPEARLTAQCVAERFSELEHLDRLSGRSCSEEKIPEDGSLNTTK
Chain of CAMK1B (Q6P2M8 whole entry): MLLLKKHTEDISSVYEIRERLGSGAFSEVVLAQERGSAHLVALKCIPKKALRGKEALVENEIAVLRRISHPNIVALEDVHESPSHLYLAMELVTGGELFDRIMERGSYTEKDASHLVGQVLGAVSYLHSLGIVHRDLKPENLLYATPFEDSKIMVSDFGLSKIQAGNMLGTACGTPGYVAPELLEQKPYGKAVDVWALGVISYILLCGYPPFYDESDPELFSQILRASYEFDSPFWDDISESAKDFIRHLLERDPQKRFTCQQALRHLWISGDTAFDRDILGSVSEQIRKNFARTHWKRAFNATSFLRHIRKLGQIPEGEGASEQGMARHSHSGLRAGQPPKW
T3 sequence (P10721 26-976 V559D): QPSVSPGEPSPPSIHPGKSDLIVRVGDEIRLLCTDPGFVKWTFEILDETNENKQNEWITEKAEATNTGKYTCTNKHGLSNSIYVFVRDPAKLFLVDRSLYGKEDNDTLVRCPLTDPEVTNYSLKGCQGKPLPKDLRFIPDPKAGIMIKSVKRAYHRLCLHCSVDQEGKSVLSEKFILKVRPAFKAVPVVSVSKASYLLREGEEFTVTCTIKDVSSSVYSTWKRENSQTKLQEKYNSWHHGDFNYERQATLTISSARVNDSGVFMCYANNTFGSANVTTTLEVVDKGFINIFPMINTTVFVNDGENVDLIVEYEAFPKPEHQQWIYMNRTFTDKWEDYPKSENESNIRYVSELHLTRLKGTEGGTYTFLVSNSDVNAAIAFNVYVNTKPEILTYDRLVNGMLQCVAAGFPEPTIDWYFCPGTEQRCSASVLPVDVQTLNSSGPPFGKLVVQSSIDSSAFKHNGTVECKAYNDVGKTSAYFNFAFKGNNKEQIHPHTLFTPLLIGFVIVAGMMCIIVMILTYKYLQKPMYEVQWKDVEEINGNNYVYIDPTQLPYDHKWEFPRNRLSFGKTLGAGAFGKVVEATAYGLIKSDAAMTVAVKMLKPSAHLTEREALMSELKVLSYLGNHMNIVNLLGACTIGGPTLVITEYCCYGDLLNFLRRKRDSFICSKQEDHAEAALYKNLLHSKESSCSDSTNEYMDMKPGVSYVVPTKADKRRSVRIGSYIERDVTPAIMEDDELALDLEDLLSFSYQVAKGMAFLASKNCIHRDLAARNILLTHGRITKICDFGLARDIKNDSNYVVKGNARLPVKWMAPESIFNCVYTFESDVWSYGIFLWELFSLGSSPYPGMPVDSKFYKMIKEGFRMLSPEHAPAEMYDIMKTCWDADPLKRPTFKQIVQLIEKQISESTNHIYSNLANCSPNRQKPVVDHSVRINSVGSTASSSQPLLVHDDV
Chain of PRP4 (Q13523 whole entry): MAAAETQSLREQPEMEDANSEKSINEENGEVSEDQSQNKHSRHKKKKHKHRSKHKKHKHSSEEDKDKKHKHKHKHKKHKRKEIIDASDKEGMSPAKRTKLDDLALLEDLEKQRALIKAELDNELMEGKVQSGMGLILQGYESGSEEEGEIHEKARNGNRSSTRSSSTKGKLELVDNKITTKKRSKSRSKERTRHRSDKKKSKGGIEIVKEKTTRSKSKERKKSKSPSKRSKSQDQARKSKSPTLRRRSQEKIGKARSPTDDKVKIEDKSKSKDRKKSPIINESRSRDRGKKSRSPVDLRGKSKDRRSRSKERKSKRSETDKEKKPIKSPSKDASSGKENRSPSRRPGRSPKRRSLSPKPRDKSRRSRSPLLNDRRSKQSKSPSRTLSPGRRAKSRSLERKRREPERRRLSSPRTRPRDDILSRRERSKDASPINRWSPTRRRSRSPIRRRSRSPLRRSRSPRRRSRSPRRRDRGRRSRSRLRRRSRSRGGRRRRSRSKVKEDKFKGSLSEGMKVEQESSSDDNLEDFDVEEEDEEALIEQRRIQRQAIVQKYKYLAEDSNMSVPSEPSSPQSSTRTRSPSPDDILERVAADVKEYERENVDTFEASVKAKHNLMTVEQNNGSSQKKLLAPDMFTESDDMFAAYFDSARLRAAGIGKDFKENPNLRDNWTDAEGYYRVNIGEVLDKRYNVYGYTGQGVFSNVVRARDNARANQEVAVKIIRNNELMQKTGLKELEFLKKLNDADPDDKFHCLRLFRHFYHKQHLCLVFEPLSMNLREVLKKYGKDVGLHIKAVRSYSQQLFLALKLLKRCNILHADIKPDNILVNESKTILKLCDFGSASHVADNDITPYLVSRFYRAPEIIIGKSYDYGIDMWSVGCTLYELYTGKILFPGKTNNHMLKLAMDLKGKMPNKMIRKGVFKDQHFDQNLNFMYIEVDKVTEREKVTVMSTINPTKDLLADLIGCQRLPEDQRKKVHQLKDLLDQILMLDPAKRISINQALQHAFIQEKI
Chain of CAMK2B (Q13554 whole entry): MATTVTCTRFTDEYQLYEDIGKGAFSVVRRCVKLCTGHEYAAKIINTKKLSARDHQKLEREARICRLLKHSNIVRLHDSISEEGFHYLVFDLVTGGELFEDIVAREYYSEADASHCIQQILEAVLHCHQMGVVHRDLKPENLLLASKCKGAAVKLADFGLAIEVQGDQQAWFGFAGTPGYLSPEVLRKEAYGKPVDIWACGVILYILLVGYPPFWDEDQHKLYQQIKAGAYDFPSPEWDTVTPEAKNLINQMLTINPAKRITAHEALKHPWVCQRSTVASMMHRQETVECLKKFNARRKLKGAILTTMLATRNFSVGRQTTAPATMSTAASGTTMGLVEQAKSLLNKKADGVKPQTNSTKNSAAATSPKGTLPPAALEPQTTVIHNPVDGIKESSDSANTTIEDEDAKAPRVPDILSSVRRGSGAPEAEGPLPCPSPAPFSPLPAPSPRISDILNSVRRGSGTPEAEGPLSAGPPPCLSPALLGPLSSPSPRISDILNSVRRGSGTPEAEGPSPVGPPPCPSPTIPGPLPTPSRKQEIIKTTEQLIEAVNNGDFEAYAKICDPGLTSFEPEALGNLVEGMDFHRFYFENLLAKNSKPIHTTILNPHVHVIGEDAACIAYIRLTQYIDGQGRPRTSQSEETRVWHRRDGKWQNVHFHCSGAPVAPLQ

SMILES	remaining binding at 1 µM [1] [%]	remaining binding at 1 µM [2] [%]	remaining binding at 1 µM [3] [%]	remaining binding at 1 µM [4] [%]	remaining binding at 1 µM [5] [%]	remaining binding at 1 µM [6] [%]	remaining binding at 1 µM [7] [%]	remaining binding at 1 µM [8] [%]	remaining binding at 1 µM [9] [%]
CNc1c(-c2ccc(C(=O)N3CCC(N4CCOCC4)CC3)cc2)cnc2[nH]cc(Cl)c12 [Compound 96, (4-(3-chloro-4-(methylamino)-1H-pyrrolo[2,3-b]pyridin-5-yl)phenyl)(4-morpholinopiperidin-1-yl)methanone]	100	0.15	47	4.5	100	100	100	87	100
O=C(c1ccc(-c2cnc3[nH]cc(Cl)c3c2NC2CCCC2)cc1)N1CCC(N2CCOCC2)CC1 [Compound 101, (4-(3-chloro-4-(cyclopentylamino)-1H-pyrrolo[2,3-b]pyridin-5-yl)phenyl)(4-morpholinopiperidin-1-yl)methanone]	87	11	38	50	80	100	100	69	99
CNc1c(-c2cnn([C@H]3CCN(C(C)=O)C[C@@H]3F)c2)cnc2[nH]cc(Cl)c12 [Compound 77, 1-((3S,4S)-4-(4-(3-chloro-4-(methylamino)-1H-pyrrolo[2,3-b]pyridin-5-yl)-1H-pyrazol-1-yl)-3-fluoropiperidin-1-yl)ethan-1-one]	100	0	14	2.8	93	100	100	74	100

— patent publication US12275731B2, “Azaindole inhibitors of wild-type and mutant forms of LRRK2” (DANA-FARBER CANCER INSTITUTE, INC., priority 2018, dated 2025)
